Where “and” joins values, the source holds several entries; their conditions need not be identical. Equal values may be shown once. Marks after values point to notes of the source that are not given here. Values belong to the compound of their own block, whether it stands above or below them.
How the values were obtained:
[1] = Pharmacokinetics in male Han Wistar rats after simultaneous intravenous administration; format: in vivo; parameters: AUC0-t / AUC0-∞: concentration or dose not given beside the values
Text: (§1) The pharmacokinetics and bioavailability of [4,6-bis([^2H6]dimethylamino)-2-(4-{[4-(trifluoromethyl)benzoyl]amino}benzyl)pyrimidin-5-yl]acetic acid (1) and [4,6-bisdimethylamino)-2-(4-{[4-(trifluoromethyl)benzoyl]amino}benzyl)pyrimidin-5-yl]acetic acid (“the undeuterated analog”) were compared in male Han Wistar rats after intravenous (“IV”) and oral (“PO”) administration.
(§2) The following additional acronyms and definitions are used in the study: • AUC0-∞—area under the plasma concentration time curve from time 0 to infinity • AUC0-t—area under the plasma concentration time curve from time 0 to the last quantifiable timepoint • AUMC—area under the first moment curve • CL—total plasma clearance • Cmax—maximum plasma concentration • MRT—mean residence time • PEG—polyethylene glycol • t½—elimination half-life • tmax—time of maximum plasma concentration • Vss—steady-state volume of distribution
(§3) Compound 1 (1.02 mg/kg) and the undeuterated analog (1.0 mg/kg) and were administered simultaneously as a solution in PEG 400:ethanol:water (40:10:50) both intravenously and orally (by gavage) to four male rats per dose route. The doses were equivalent on a molar basis. Blood samples were collected serially up to 48 h postdose. […] Noncompartmental pharmacokinetic parameters were calculated and the results compared statistically using paired t-tests, since the simultaneous administration of both compounds allows each rat to serve as its own control.

[2] = Pharmacokinetics and bioavailability in male Han Wistar rats after simultaneous oral administration; format: in vivo; parameters: AUC0-t / AUC0-∞: concentration or dose not given beside the values
Text: as §1, §2, §3

CRTH2 = molecular target: T1, CRTH2 (Homo sapiens, UniProt Q9Y5Y4); test: Biological inhibitory activity in vitro
T1 sequence (Q9Y5Y4 1-395): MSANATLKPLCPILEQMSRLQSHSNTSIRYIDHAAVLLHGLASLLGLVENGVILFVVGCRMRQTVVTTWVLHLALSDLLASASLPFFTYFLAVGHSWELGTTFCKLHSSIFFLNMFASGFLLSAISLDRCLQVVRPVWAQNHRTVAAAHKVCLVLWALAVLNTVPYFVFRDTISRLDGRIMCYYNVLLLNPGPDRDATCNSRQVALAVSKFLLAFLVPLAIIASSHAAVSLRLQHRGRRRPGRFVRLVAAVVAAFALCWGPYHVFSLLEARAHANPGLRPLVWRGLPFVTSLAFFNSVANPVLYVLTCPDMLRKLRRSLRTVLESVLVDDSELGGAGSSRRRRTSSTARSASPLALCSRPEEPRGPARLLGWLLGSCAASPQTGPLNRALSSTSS

[3] = male, Han Wistar, rat, in vivo, iv
[4] = male, Han Wistar, rat, in vivo, po
[5] = IV, individual rats, listed as H
[6] = oral, individual rats, listed as H

AUC0-∞ higher than that of the undeuterated analog [1, 3]: 28%
Extrapolated area of AUC0-∞, averaged, of total area [1, 3]: < 0.15%
clearance as percent of that of the undeuterated analog [1, 3]: 80%
clearance relative to the unlabeled drug ([1]; rat, in vivo): reduced clearance
AUC0-t higher than that of the undeuterated analog [2, 4]: 71%
AUC0-∞ higher than that of the undeuterated analog [2, 4]: 63%
Cmax higher than that of the undeuterated analog [2, 4]: 42%
Extrapolated area of AUC0-∞, averaged, of total area [2, 4]: < 1.5%
tmax ([2]; male, Han Wistar, rat, in vivo, po, 1.02 mg/kg): 1 h
MRT ([2]; male, Han Wistar, rat, in vivo, po, 1.02 mg/kg, MRT): 2.61 ± 0.708 h
tmax ([2]; male, Han Wistar, rat, in vivo, po, 1.02 mg/kg, tmax): 0.5 h
Bioavailability ([2]; male, Han Wistar, rat, in vivo, po, Bioavailability): 52.5%
bioavailability relative to the unlabeled drug ([2]; rat, in vivo): better bioavailability
biological inhibitory activity in vitro compared to the undeuterated analog (CRTH2): comparable
SMILES: [2H]C([2H])([2H])N(c1nc(Cc2ccc(NC(=O)c3ccc(C(F)(F)F)cc3)cc2)nc(N(C([2H])([2H])[2H])C([2H])([2H])[2H])c1CC(=O)O)C([2H])([2H])[2H] [Compound 1, [4,6-bis([^2H6]dimethylamino)-2-(4-{[4-(trifluoromethyl)benzoyl]amino}benzyl)pyrimidin-5-yl]acetic acid]
plasma concentrations compared with the undeuterated analog ([1]; rat, in vivo, iv): greater than those of the undeuterated analog
plasma concentrations compared with the undeuterated analog ([2]; rat, in vivo, po): greater than those of the undeuterated analog

Plasma Concentrations ([1]; IV, 8 h, mean): 84.4 ng/mL
Plasma Concentrations ([1]; IV, 24 h, mean): 5.02 ng/mL
Plasma Concentrations ([1]; IV, 48 h, individual rats): 1.01 ng/mL
t1/2 ([1]; IV, harmonic mean N=4, listed as H): 3.23 ± 1.99 h and 3.23^b h
MRT [1, 5]: 2.43 h and 2.20 h and 1.26 h and 0.569 h
t1/2 [1, 5]: 6.68 h and 3.12 h and 3.60 h and 2.03 h
CL ([1]; IV, mean N=4, listed as H): 2.17 ± 1.07 mL/min/kg and 2.17 mL/min/kg
MRT ([1]; IV, mean N=4, listed as H): 1.62 ± 0.861 h and 1.62 h
Vss ([1]; IV, mean N=4, listed as H): 0.186 ± 0.101 L/kg and 0.186 L/kg
Plasma Concentrations ([2]; oral, 0.25 h, mean): 992 ng/mL and 1980 nM
Plasma Concentrations ([2]; oral, 0.5 h, mean): 1,490 ng/mL and 2960 nM
Plasma Concentrations ([2]; oral, 1 h, mean): 1,330 ng/mL and 2660 nM
Plasma Concentrations ([2]; oral, 2 h, mean): 601 ng/mL and 1200 nM
Plasma Concentrations ([2]; oral, 4 h, mean): 209 ng/mL and 511 nM
Plasma Concentrations ([2]; oral, 6 h, mean): 132 ng/mL and 262 nM
Plasma Concentrations ([2]; oral, 8 h, mean): 81.2 ng/mL and 162 nM
Plasma Concentrations ([2]; oral, 24 h, mean): 1.29 ng/mL and 2.57 nM
Plasma Concentrations ([2]; oral, 48 h, mean): 0.393 ng/mL and 0.783 nM
t1/2 ([2]; oral, harmonic mean N=4, listed as H): 2.39 ± 2.11 h and 2.39^d h
Bioavailability [2, 6]: 10.3% and 4.06% and 50.5% and 20.6%
Cmax [2, 6]: 2.11 µM and 0.708 µM and 6.34 µM and 3.17 µM
MRT [2, 6]: 1.40 h and 4.25 h and 3.36 h and 3.47 h
t1/2 [2, 6]: 1.10 h and 5.02 h and 2.57 h and 5.63 h
tmax [2, 6]: 0.5 h (3×) and 1 h
Cmax ([2]; oral, mean N=4): 3.08 µM
AUC0-t ([2]; oral, mean N=4, listed as H): 8,070 ± 7,950 nM · h and 8,070 nM · h
AUC0-∞ ([2]; oral, mean N=4, listed as H): 8,160 ± 7,880 nM · h and 8,160 nM · h
Bioavailability ([2]; oral, mean N=4, listed as H): 21.3%
MRT ([2]; oral, mean N=4, listed as H): 3.12 ± 1.21 h and 3.12 h
Bioavailability ([2]; oral, mean N=4, listed as the undeuterated analog): 45.6%
tmax ([2]; oral, median (range) N=4, listed as H): 0.5 (0.5-1.0)^e h and 0.5^a h
SMILES: CN(C)c1nc(Cc2ccc(NC(=O)c3ccc(C(F)(F)F)cc3)cc2)nc(N(C)C)c1CC(=O)O [Undeuterated Analog, reference compound]
Plasma Concentrations ([1]; IV, 8 h, individual rats): 64.0 ng/mL and 173 ng/mL and 88.4 ng/mL and 12.0 ng/mL
Plasma Concentrations ([1]; IV, 24 h, individual rats): 12.0 ng/mL and 4.78 ng/mL and 3.29 ng/mL and <1.00 ng/mL
AUC0-t [1, 5]: 14,700 nM · h and 23,300 nM · h and 24,300 nM · h and 9,020 nM · h
AUC0-∞ [1, 5]: 14,700 nM · h and 23,300 nM · h and 24,400 nM · h and 9,090 nM · h
CL [1, 5]: 2.25 mL/min/kg and 1.43 mL/min/kg and 1.36 mL/min/kg and 3.66 mL/min/kg
Vss [1, 5]: 0.328 L/kg and 0.189 L/kg and 0.103 L/kg and 0.125 L/kg
Plasma Concentrations ([2]; oral, 0.25 h, individual rats): 959 ng/mL and 308 ng/mL and 1,520 ng/mL and 1,180 ng/mL and 1,910 nM and 614 nM and 3,030 nM and 2,350 nM
Plasma Concentrations ([2]; oral, 0.5 h, individual rats): 1,060 ng/mL and 355 ng/mL and 2,940 ng/mL and 1,590 ng/mL and 2,110 nM and 708 nM and 5,860 nM and 3,170 nM
Plasma Concentrations ([2]; oral, 1 h, individual rats): 744 ng/mL and 191 ng/mL and 3,180 ng/mL and 1,220 ng/mL and 1,480 nM and 381 nM and 6,340 nM and 2,430 nM
Plasma Concentrations ([2]; oral, 2 h, individual rats): 463 ng/mL and 104 ng/mL and 1,290 ng/mL and 548 ng/mL and 923 nM and 207 nM and 2,570 nM and 1,090 nM
Plasma Concentrations ([2]; oral, 4 h, individual rats): 68.4 ng/mL and 32.5 ng/mL and 559 ng/mL and 178 ng/mL and 64.8 nM and 1,120 nM and 355 nM
Plasma Concentrations ([2]; oral, 6 h, individual rats): 22.0 ng/mL and 24.1 ng/mL and 387 ng/mL and 93.3 ng/mL and 43.9 nM and 48.1 nM and 772 nM and 186 nM
Plasma Concentrations ([2]; oral, 8 h, individual rats): 12.3 ng/mL and 18.7 ng/mL and 217 ng/mL and 76.8 ng/mL and 24.5 nM and 37.3 nM and 433 nM and 153 nM
Plasma Concentrations ([2]; oral, 24 h, individual rats): <1.00 ng/mL and 2.99 ng/mL and 2.16 ng/mL and <1.99 nM and 5.96 nM and 4.31 nM
Plasma Concentrations ([2]; oral, 48 h, individual rats): <1.00 ng/mL and 1.57 ng/mL and <1.99 nM and 3.13 nM
AUC0-t [2, 6]: 3,880 nM · h and 1,280 nM · h and 19,300 nM · h and 7,820 nM · h
AUC0-∞ [2, 6]: 3,920 nM · h and 1,550 nM · h and 19,300 nM · h and 7,850 nM · h
CL/F [2, 6]: 8.48 mL/min/kg and 21.5 mL/min/kg and 1.72 mL/min/kg and 4.23 mL/min/kg
CL/F ([2]; oral, mean N=4, listed as H): 8.97^c ± 8.78^ mL/min/kg and 8.97 mL/min/kg
